For the molecule `FC(F)(F)c1ccc(-c2cc(Oc3cccc4ccc(Cl)nc34)ncn2)cc1`, the melting point lay within 172 to 173 °C.

The molecule `CC(C)(C)c1ccc(C(=O)Nc2cn3cc(C#N)ccc3n2)cc1` yielded a melting point of 300 to 301 °C.

The molecule `CC(C)n1nc(-c2c(-c3ccccc3)nn3ccc(N4CCN(C(=O)CN(C)C)CC4)cc23)ccc1=O` had a melting point of 129 to 130 °C.

The molecule `COc1cccc(-c2nc(NC(=O)Nc3ccccn3)cs2)c1` showed a melting point of 201 to 203 °C.

On to `CC1(C)O[C@H](CC#N)C[C@H](CC(=O)N(c2ccccc2)c2ccccc2)O1`, for which the melting point lay in the range of 98 to 100 °C.

Molecule `c1cn(CCOc2ccc(-c3nnn[nH]3)cc2)cn1` had a melting point of 196 to 197 °C.

Consider `O=C1CN2CCCC1C2` (configuration not stated), for which the melting point fell in the range of 83 to 87 °C.

`CCCCOc1nc(N)c2[nH]c(=O)n(CCS(=O)(=O)c3cccc(CC(=O)OC)c3)c2n1` showed a melting point of 246 to 247 °C.

For the molecule `CCN(C(=O)C(F)(F)F)c1ccc(C(=O)O)cc1`, the melting point was found to be 132 °C.

`CCCCc1c(O)c2nccnc2n(-c2ccccc2)c1=O`: the melting point was in the range of 183 to 185 °C.

`CC(=O)OC1CSC(Oc2cccnc2-c2c(C)noc2C)C(OC(C)=O)C1OC(C)=O` (configuration not stated) registered a melting point of 68 to 72 °C.

Molecule `O=C(CCCCCBr)NC1CCCCC1` registered a melting point of 73 to 74 °C.

On to `CCOC(=O)CC1c2ccccc2C(=O)N1c1ccccc1` (configuration not stated), for which the melting point is 109 to 110 °C.

With `NC(=O)C1CCCC(C(=O)O)C1` (configuration not stated), the melting point lay in the range of 102 to 128 °C.

The molecule `COc1ccc(C(OC(C)=O)c2cc(OCc3ccccc3)ccc2OC)nc1` (configuration not stated) registered a melting point of 105 to 110 °C.

As for `Cc1ccc(NC(=O)c2ccc(C3OCC(SC(C)C(O)(Cn4cncn4)c4ccc(F)cc4F)CO3)cc2)cc1` (configuration not stated), the melting point was 101 °C.

As to `O=c1[nH]c2ccc(CCCCN3CCN(c4cccc5ccccc45)CC3)cc2o1`, the melting point was in the range of 231 to 233 °C.

In turn, `C#CCOc1cc(-c2ncnc(C)c2C)c(F)cc1Cl` came in with a melting point of 131 to 133 °C.

Regarding `CC(C)C(C#N)NC(=O)c1snc(Cl)c1Cl` (configuration not stated), the melting point is 120 to 121 °C.

Regarding `CCCCCc1nc2ccccc2[nH]1`, the melting point lay in the range of 161 to 162 °C.

With `CSc1cc2cccc(NS(=O)(=O)c3cccs3)c2[nH]1`, the melting point was in the range of 102 to 103 °C.

As for `CCC(C)(CC)c1nnc(NC(=O)c2c(OC)cccc2OC)s1`, the melting point lay in the range of 208 to 210 °C.

`N#Cc1c2c(c3c(c1N1CCCC1)Cc1ccccc1-3)-c1ccccc1C2`: the melting point lay within 206 to 208 °C.

With `O=c1[nH]ncc2[nH]c(-c3ccc(OC(F)F)c(OC4CC4)c3)c(-c3ccccc3)c12`, the melting point is 138 to 143 °C.

`CC(=C1SC(=O)NC1=O)c1ccc(OCCOc2c(-c3ccc(F)cc3)n(C)c3cc(Cl)ccc3c2=O)cc1`: the melting point was in the range of 292 to 296 °C.

Molecule `COC(=O)C(C)c1ccc2oc(-c3c(F)cccc3Cl)nc2c1` (configuration not stated) showed a melting point of 104 to 105 °C.

`CC(C)(Cc1ccccc1)C(O)CCN1C(=O)NC(=O)C1CCCCCCC(=O)O` (configuration not stated) displayed a melting point of 115 °C.

On to `Clc1ccc2c(c1)N(C1CN3CCC1CC3)c1ccccc1S2` (configuration not stated), for which the melting point worked out at 165 °C.

`Cc1nc2cc3c(cc2c(=O)n1COC(=O)C(C)(C)C)C(Br)CC3` (configuration not stated) returned a melting point of 98 °C.

In turn, `COc1cc(C)nc(NC(=O)NS(=O)(=O)c2ccccc2N=NN(C)C)n1` registered a melting point of 158 to 160 °C.

`COC(=O)CCCCCCCCOC1OC(CO)C(O)C(OC2OC(CO)C(O)C(O)C2OC2OC(C)C(O)C(O)C2O)C1NC(C)=O` (configuration not stated): the melting point was 195 °C.

Molecule `COc1cccc2c1Sc1ccc(C(C)C(N)=O)cc1C(=O)C2` (configuration not stated) displayed a melting point of 210 to 211 °C.

`C=C(c1cn(-c2c(Cl)cc(C(F)(F)F)cc2Cl)nc1C#N)C(F)(F)Cl` displayed a melting point of 113 to 114 °C.

`Cc1nc2c(c3c1[nH]c1cccc(F)c13)C(=O)CC(C)(C)C2` had a melting point of 246 to 247 °C.

The molecule `S=C(Nc1cccc2c1[nH]c1ccccc12)SCc1ccccc1` returned a melting point of 66 to 68 °C.

In turn, `CC(C)C(C(=O)O)c1cc(Cl)c(O)c(Cl)c1` (configuration not stated) yielded a melting point of 152 to 154 °C.

Regarding `Cc1nc(N2C[C@@H](C)N(Cc3ccc(F)cc3)C2=O)sc1C(=O)NCc1cc(F)cc(F)c1`, the melting point fell in the range of 159 to 160 °C.

`O=C(O)CCc1cnoc1-c1ccc(F)c(F)c1` gave a melting point of 102 to 103 °C.

`CS(=O)(=O)c1ccc(-c2cnn(-c3cccc(-c4ccc(F)cc4)c3)c(=O)c2-c2ccc(F)cc2)cc1` had a melting point of 222 to 225 °C.

`CC(C)(C)c1cc(CC(Cc2cc(C(C)(C)C)c(O)c(C(C)(C)C)c2)[N+](=O)[O-])cc(C(C)(C)C)c1O`: the melting point was 161 to 165 °C.

`Brc1csc(C#Cc2ccccc2)n1`: the melting point lay within 79 to 82 °C.

For `O=CC(=Cc1ccccc1)C(C=O)=Cc1ccccc1`, the melting point lay within 109 to 110 °C.

In the case of `Cc1cc(CC(=O)O)n(C)c1C(=O)c1ccc2n1CCC2`, the melting point is 132 to 134 °C.

Regarding `Cc1cccc2c1SC1(CC1)C2=O`, the melting point was in the range of 74 to 75 °C.

As for `CCc1c(C(C)(C)C)cc(C(C)(C)C)c(O)c1C(=O)Nc1ccc(S(=O)(=O)C(F)(F)F)cc1Cl`, the melting point is 157 to 158 °C.

For the molecule `COc1cc(Nc2c(C#N)cnc3cc(-c4ccc(CNCCS(C)(=O)=O)o4)ccc23)c(Cl)cc1Cl`, the melting point lay within 171 to 174 °C.

Molecule `CN(C)C(=O)c1cn(C)c2nc3cc(F)c(F)cc3cc2c1=O` yielded a melting point of 324 °C.

`COc1ccc(CNc2nc(Cl)c3ncn(Cc4ccc(OC)cc4)c3n2)cc1`: the melting point was in the range of 161 to 164 °C.

Molecule `Nc1nnc(-c2ccccc2Cl)c(-c2ccccc2Cl)n1` registered a melting point of 240 to 242 °C.

On to `COc1ccc2c(c1)C(=O)c1cc(CC(=O)O)ccc1SC2`, for which the melting point lay in the range of 155 to 157 °C.

As for `NC1CC2c3ccccc3Cc3ccccc3N2C1=O` (configuration not stated), the melting point was 186 to 188 °C.

`COC1(c2ccc(Sc3ccc(C(=O)c4c(F)c(F)c(F)c(F)c4F)cc3)s2)CCOCC1` came in with a melting point of 93 to 94 °C.

As to `O=C(Nc1nnco1)C(c1ccccc1)c1ccccc1`, the melting point is 131 to 132 °C.

In turn, `CN(OCC(=O)O)C(=S)NC(c1ccccc1)c1ccccc1` had a melting point of 160 to 162 °C.

In turn, `CC1(C)OC(c2ccc(S(N)(=O)=O)c(F)c2)=C(c2cc(F)cc(F)c2)C1=S` showed a melting point of 153 to 154 °C.

As to `CCNC(=O)Nc1nc2cc(-c3cnc(OC)nc3)ccn2n1`, the melting point is 243 to 248 °C.

`Cn1ncnc1COc1nn2c(-c3ccccc3F)nnc2cc1C1(C)CCOCC1` yielded a melting point of 191 °C.

The molecule `CC(=O)NNc1nc(-c2ccccc2)c2cc(Cl)ccc2n1` yielded a melting point of 228 °C.

The molecule `CC(C)(C)c1ccc(-c2ccc(-c3ccc(Br)s3)s2)cc1` showed a melting point of 132 to 136 °C.

As for `CCc1nnc2cc(N3CCN(C)CC3)nc(CC)n12`, the melting point was 128 to 131 °C.

`CCn1cc(C(=O)O)c(=O)c2ccc(-n3cccc3)nc21` gave a melting point of 230 to 232 °C.

Molecule `CC1(C)CN(S(=O)(=O)c2ccccc2F)c2cccc(Br)c2O1` yielded a melting point of 108 to 110 °C.

Regarding `CCOC(=O)C(=O)Nc1cc(Br)c2ccccc2c1NC(=O)C(=O)OCC`, the melting point stood at 164 °C.

Turning to `OCCCCc1n[nH]c2ccc(C(F)(F)F)cc12`, the melting point was in the range of 74 to 76 °C.

The molecule `CCN(CC)CCNc1ccc2c3c(nn2CCN(CC)CC)-c2c(O)ccc(O)c2C(=O)c13` came in with a melting point of 152 °C.

`NC(=O)CCCCCOc1cc(-c2ccccc2)cc(-c2ccccc2)n1` gave a melting point of 118 to 120 °C.

Molecule `COC(=O)c1cc(OC)c(OS(=O)(=O)C(F)(F)F)cc1[N+](=O)[O-]` came in with a melting point of 69 to 70 °C.

As to `CN1c2ccccc2C(c2ccccc2F)=Nc2cccnc21`, the melting point lay within 140 to 142 °C.

`Nc1nc2[nH]c(CCC#Cc3ccc(C(=O)N[C@@H](CCC(=O)O)C(=O)O)cn3)cc2c(=O)[nH]1` registered a melting point of 178 to 179 °C.

The molecule `CCOC(=O)C1CCCCC1(c1ccc(O)c(C(C)(C)C)c1)c1ccc(O)c(C(C)(C)C)c1` (configuration not stated) came in with a melting point of 86 °C.

Molecule `COc1cccc(NC(=O)NC2N=C(c3ccccc3)c3cccc(C)c3N(C)C2=O)c1` (configuration not stated) yielded a melting point of 215 to 217 °C.

With `CCOC(=O)CCNC=C(C(=O)OCC)C(=O)c1cc(F)c(F)c(F)c1F`, the melting point lay within 96 to 97 °C.

Turning to `CS(=O)(=O)c1ccc(-c2nnc(Oc3ccc(F)cc3F)cc2-c2ccc(Cl)cc2)cc1`, the melting point is 115 to 117 °C.

Take `COc1cnc(C(=O)Nc2c(Cl)cncc2Cl)cc1OC1CCCC1`: the melting point is 129 to 130 °C.

With `CC(C)(C)CC(C)(C)c1cc(N=Nc2cc(C#N)ccc2Cl)c(O)c(C(C)(C)c2ccccc2)c1`, the melting point was in the range of 190 to 191 °C.

Turning to `O=C(O)c1ccc(N2CCSCC2)cc1`, the melting point was in the range of 233 to 235 °C.

Take `CCc1c(Sc2cc(C)cc(C)c2)n(CC2=CC(CO)C(CO)C2)c(=O)[nH]c1=O` (configuration not stated): the melting point was in the range of 156 to 157 °C.

Turning to `CCCCc1oc2ccccc2c1C(=O)c1ccc(NS(=O)(=O)c2cccnc2)cc1`, the melting point was 130 °C.

`Cc1[nH]cnc1CNC(=N)NC#N` displayed a melting point of 216 to 221 °C.

`O=C1c2ccccc2C(=O)N1CCc1nnc2n1-c1ccc(Cl)cc1C(c1ccccc1)=NC2` had a melting point of 133 to 134 °C.

Consider `Cc1nnc2n1-c1sc(CC(=O)N3CCOCC3)cc1C(c1ccccc1Cl)=NC2C` (configuration not stated), for which the melting point lay within 126 to 129 °C.

`COC(=O)c1ccc(COc2cc3c(=O)ccn4c5ccc(Br)cc5c(c2)c34)nc1` returned a melting point of 75.2 to 76.3 °C.

`N#CN1CCC2(CC1)CN(c1ccccc1[N+](=O)[O-])c1ccccc12` gave a melting point of 148 to 150 °C.

For `CCCN(C(=O)COc1c(OC)cccc1OC)C1CCc2c(ccc(O)c2O)C1` (configuration not stated), the melting point is 157 to 158 °C.

Consider `CSc1ccc(C(C)C)c(NC(=O)CN2CCN(CCCSc3nc4ccccc4o3)CC2)c1C(C)C`, for which the melting point is 126 to 127 °C.

The molecule `CN1CCN(Cc2ccc(-c3nc4cc([N+](=O)[O-])ccc4o3)s2)CC1` showed a melting point of 135 to 137 °C.

`CCOC(=O)Cc1ccc(OCCCCl)c(OC)c1`: the melting point was 36 to 38 °C.

Values taken from a melting point compilation (Tetko et al.; mined from patent text by program, amines drawn as free bases though some values may be those of a salt).
